Measurements reported in PMC9102017, “A Structure—Activity Relationship Study of the Inhibition of α-Amylase by Benzoic Acid and Its Derivatives” (Nutrients, 2022).
Several values for one entry are separate records, joined by “and”; a condition that tells them apart may be missing. Equal values may be shown once. Read-outs that look alike come from different tables or passages of the source.

Assays:
α-amylase = settings: cited from earlier work
[1] = biological target: T1, Porcine pancreatic α-amylase (Sus scrofa, UniProt P00690); test: In vitro α-amylase inhibition assay (starch/DNS, absorbance at 540 nm); format: biochemical; settings: for IC50: 0.2 M potassium phosphate buffer pH 6.8, 37 °C, mean ± SD, triplicate, read-out: IC50 Values against α-Amylase (converted); for inhibited α-amylase more than the analogue without the 2-hydroxyl group: compared with 4-hydroxybenzoic acid (Group 1) or 3,4-dihydroxybenzoic acid (Group 2), Figure 1
T1 construct: purchased Sigma-Aldrich Chemical Co. (St. Louis, MO, USA) A3176
T1 sequence (P00690 16-511): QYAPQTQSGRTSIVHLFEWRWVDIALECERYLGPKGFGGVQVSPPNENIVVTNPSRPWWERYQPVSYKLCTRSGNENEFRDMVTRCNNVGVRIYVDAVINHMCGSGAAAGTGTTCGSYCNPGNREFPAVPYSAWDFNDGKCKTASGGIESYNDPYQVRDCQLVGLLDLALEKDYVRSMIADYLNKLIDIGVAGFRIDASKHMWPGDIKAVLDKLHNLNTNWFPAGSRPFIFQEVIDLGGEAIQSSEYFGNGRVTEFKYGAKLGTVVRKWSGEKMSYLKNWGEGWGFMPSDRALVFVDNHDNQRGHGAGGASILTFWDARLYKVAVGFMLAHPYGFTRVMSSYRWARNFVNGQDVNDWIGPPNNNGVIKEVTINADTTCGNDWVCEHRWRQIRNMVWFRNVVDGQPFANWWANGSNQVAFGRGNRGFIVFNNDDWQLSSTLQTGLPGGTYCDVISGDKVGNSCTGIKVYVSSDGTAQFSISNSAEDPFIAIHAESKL
Method: The α-amylase inhibition assay was adapted from Phan et al. with slight modifications. In order to simulate the small intestine conditions, a buffer pH of 6.8 and an incubation temperature of 37 °C were used. Porcine pancreatic α-amylase was dissolved in 0.2 M potassium phosphate buffer (pH 6.8). Phenolic acid solutions were prepared in 80% DMSO. […] An aliquot of 50 μL of phenolic acid solution (10, 20, 30, 40 and 50 mM) was mixed with 400 μL of 0.2 M potassium phosphate buffer (pH 6.8 with 7 mM NaCl) in a 2 mL tube. After adding 100 μL of the enzyme solution (0.5 unit/mL), the tube was incubated at 37 °C for 5 min. Subsequently, 450 μL of the cooked soluble starch solution (5 mg/mL) was added to initiate the reaction at 37 °C for 20 min, followed by the addition of 500 μL of DNS reagent, and then the tubes were boiled for 15 min at 100 °C to inactivate the enzyme. A total of 200 μL of the reaction solution was transferred to a 96-well plate and the absorbance was measured at 540 nm using a microplate reader (Tecan Infinite 200 PRO; Tecan, Männedorf, Zürich, Switzerland). All of the samples were prepared and measured in triplicate. The inhibition rate was calculated using the following formula: (1) Inhibition(%)={1−A[sample]−A[blank]/A[control+]−A[control−]}×100 where:
A [control+] is absorbance at 100% enzyme activity (buffer with starch and enzyme);
A [control−] is starch background absorbance (buffer and starch without enzyme);
A [sample] is test sample absorbance (buffer with enzyme, starch and inhibitor);
A [blank] is inhibitor and starch background absorbance (a test sample without enzyme).
The inhibition rates were plotted against the logarithmic values of six concentrations of the test inhibitor and a non-linear regression analysis was employed to generate a dose-response curve and calculate the IC50 values (mM and mg/mL).

[2] = recent studies, read-out: IC50 for α-amylase
[3] = lower buffer concentration (0.02 M) than in this study, read-out: IC50 previously reported

| IC50 [1] | SMILES | IC50 (α-amylase; [2]) [mM] | inhibited α-amylase more than the analogue without the 2-hydroxyl group [1] [%] | IC50 (α-amylase; [3]) [mM] |
| --- | --- | --- | --- | --- |
| 19.3 mM | O=C(O)c1ccc(O)cc1O [Compound 3, 2,4-Dihydroxybenzoic acid] |  | 33.31 |  |
| 20.6 mM | O=C(O)c1c(O)cc(O)cc1O [Compound 6, 2,4,6-Trihydroxybenzoic acid] |  |  |  |
| 52.3 mM | Cc1ccc(C(=O)O)cc1 [Compound 8, 4-Methylbenzoic acid] |  |  |  |
| 23.4 mM | Cc1cc(O)ccc1C(=O)O [Compound 9, 4-Hydroxy-2-methylbenzoic acid] |  |  |  |
| 28.6 mM | Cc1cc(C(=O)O)ccc1O [Compound 10, 4-Hydroxy-3-methylbenzoic acid] |  |  |  |
| 26 mM | Cc1cc(C(=O)O)cc(C)c1O [Compound 11, 4-Hydroxy-3,5-dimethylbenzoic acid] |  |  |  |
| 18.1 mM | Cc1cc(O)cc(O)c1C(=O)O [Compound 12, 2,4-Dihydroxy-6-methylbenzoic acid] |  |  |  |
| 44.2 mM and 44.1 mM | COc1ccc(C(=O)O)cc1 [Compound 13, 4-Methoxybenzoic acid] |  |  |  |
| 48.9 mM | COc1cc(O)ccc1C(=O)O [Compound 14, 4-Hydroxy-2-methoxybenzoic acid] |  |  |  |
| 37.8 mM | COc1cc(C(=O)O)cc(O)c1O [Compound 16, 3,4-Dihydroxy-5-methoxybenzoic acid] |  |  |  |

Second part, the compound before the results:

| SMILES | IC50 [1] | IC50 (α-amylase; [2]) [mM] | inhibited α-amylase more than the analogue without the 2-hydroxyl group [1] [%] | IC50 (α-amylase; [3]) [mM] |
| --- | --- | --- | --- | --- |
| O=C(O)c1cc(O)ccc1O [2,5-dihydroxybenzoic acid, reference compound] |  | 0.298 |  |  |
| O=C(O)c1ccccc1 [Compound 1, Benzoic acid] | 45.2 mM |  |  |  |
| O=C(O)c1ccc(O)cc1 [Compound 2, 4-Hydroxybenzoic acid] | 25.7 mM |  |  |  |
| O=C(O)c1ccc(O)c(O)c1 [Compound 4, 3,4-Dihydroxybenzoic acid] | 25.4 mM |  |  | 11.5 ± 0.45 |
| O=C(O)c1ccc(O)c(O)c1O [Compound 5, 2,3,4-Trihydroxybenzoic acid] | 17.3 mM | 33.3 | 46.56 |  |
| O=C(O)c1cc(O)c(O)c(O)c1 [Compound 7, 3,4,5-Trihydroxybenzoic acid] | 26.1 mM | 1.25 |  | 7.46 ± 0.24 |
| COc1cc(C(=O)O)ccc1O [Compound 15, 4-Hydroxy-3-methoxybenzoic acid] | 24.4 mM | 27.9 |  |  |
| COc1cc(C(=O)O)cc(OC)c1O [Compound 17, 4-Hydroxy-3,5-dimethoxybenzoic acid] | 32.2 mM | 44.8 |  |  |
